Experimental data: ChEMBL document CHEMBL5252515, “Discovery of 6-Amino-2-{[(1S)-1-methylbutyl]oxy}-9-[5-(1-piperidinyl)pentyl]-7,9-dihydro-8H-purin-8-one (GSK2245035), a Highly Potent and Selective Intranasal Toll-Like Receptor 7 Agonist for the Treatment of Asthma” (J Med Chem, 2016)
Activity calls are given as the source filed them. No cut-off for these calls is given here.

Key:
[1] = target: T1, Toll-like receptor 7 (Macaca fascicularis) (UniProt B3Y652); experiment: In vivo target occupancy at TLR7 in cynomolgus monkey assessed as fold increase in IFIT2 mRNA expression in nasal scrape at 30 ng/kg administered intranasally incubated for 24 hrs by TaqMan analysis (reference value: 2.1); assay type: functional
T1 sequence (whole entry): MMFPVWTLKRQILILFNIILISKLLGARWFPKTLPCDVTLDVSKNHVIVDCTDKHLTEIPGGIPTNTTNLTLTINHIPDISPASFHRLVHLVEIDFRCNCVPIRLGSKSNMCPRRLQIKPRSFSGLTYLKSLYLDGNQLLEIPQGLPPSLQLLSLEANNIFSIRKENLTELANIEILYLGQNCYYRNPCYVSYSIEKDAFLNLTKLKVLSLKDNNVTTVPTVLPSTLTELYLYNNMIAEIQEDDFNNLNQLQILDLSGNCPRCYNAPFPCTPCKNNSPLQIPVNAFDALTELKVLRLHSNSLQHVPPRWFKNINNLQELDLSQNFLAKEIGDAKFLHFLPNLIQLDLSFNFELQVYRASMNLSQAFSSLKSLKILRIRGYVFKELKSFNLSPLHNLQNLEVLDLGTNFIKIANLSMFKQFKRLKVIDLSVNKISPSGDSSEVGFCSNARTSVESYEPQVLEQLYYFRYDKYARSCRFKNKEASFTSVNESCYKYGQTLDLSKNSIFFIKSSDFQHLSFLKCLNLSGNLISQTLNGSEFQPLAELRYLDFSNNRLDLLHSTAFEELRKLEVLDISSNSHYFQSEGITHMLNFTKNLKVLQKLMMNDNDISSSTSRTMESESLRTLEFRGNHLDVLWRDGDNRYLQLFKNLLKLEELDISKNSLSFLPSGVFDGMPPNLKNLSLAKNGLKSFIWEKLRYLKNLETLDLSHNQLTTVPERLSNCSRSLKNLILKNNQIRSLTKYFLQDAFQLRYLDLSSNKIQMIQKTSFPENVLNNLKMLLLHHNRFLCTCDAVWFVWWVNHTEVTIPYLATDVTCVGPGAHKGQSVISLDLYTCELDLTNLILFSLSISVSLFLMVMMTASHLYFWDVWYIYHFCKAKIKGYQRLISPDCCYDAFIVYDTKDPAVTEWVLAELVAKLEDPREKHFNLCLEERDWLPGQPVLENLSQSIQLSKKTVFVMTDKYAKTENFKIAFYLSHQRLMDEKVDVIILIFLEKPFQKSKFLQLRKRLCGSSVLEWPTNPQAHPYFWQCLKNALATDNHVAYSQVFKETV

Toll-like receptor 7 [2] = target: T2, Toll-like receptor 7 (Homo sapiens, UniProt Q9NYK1); experiment: Agonist activity at TLR7 in human whole blood assessed as induction of IFN-gamma production after 20 hrs by electrochemiluminescence assay; assay type: tissue-based
T2 sequence (Q9NYK1 whole entry): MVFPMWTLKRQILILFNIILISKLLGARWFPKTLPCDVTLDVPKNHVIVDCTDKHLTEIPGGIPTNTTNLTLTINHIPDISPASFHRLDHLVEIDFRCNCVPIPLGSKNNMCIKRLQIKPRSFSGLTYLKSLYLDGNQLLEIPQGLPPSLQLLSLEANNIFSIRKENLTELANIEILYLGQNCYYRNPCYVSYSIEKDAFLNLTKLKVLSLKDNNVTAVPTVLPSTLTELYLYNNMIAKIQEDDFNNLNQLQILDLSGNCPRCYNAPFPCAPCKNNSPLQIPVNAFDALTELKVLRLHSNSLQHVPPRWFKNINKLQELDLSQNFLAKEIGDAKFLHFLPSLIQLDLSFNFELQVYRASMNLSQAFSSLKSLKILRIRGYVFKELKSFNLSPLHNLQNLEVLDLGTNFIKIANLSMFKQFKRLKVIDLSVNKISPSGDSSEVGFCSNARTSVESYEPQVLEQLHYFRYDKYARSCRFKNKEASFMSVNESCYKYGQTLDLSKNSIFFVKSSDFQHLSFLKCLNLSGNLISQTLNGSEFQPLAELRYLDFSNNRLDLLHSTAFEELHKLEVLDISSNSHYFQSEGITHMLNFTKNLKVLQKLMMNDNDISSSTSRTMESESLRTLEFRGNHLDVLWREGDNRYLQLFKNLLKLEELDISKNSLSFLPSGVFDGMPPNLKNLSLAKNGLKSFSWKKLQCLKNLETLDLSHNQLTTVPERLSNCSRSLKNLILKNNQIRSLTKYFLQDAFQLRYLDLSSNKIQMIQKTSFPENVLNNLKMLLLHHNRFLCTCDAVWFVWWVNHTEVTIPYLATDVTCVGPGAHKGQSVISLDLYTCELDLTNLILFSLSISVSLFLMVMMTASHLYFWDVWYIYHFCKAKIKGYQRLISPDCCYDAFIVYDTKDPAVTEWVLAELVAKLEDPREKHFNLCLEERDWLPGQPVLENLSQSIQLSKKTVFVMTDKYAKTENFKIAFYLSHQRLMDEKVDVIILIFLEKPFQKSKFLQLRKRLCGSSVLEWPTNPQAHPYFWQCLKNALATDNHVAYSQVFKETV

[3] = Bioavailability in mouse after intranasal administration; assay type: ADME, organism-based; conditions: in vivo, inhaled or intranasal
[4] = target: Toll-like receptor 3 (Homo sapiens) (UniProt O15455); experiment: Agonist activity at TLR3 (unknown origin) expressed in HEK cells upto 50 uM by luciferase reporter assay; assay type: cell-based
[5] = target: T1, Toll-like receptor 7 (Macaca fascicularis); experiment: In vivo target occupancy at TLR7 in cynomolgus monkey assessed as fold increase in CCL8 mRNA expression in nasal scrape at 30 ng/kg administered intranasally incubated for 24 hrs by TaqMan analysis (reference value: 1); assay type: functional
[6] = target: T1, Toll-like receptor 7 (Macaca fascicularis); experiment: In vivo target occupancy at TLR7 in cynomolgus monkey assessed as fold increase in GBP1 mRNA expression in nasal scrape at 3 ng/kg administered intranasally incubated for 24 hrs by TaqMan analysis (reference value: 2.4); assay type: functional
Mus musculus [7] = experiment: Increase in IP-10 level in intranasally dosed BALB/c mouse nasal lavage after 6 hrs; assay type: functional, organism-based
Mus musculus [8] = experiment: Increase in IP-10 level in BALB/c mouse serum at 0.1 mg/kg, administered intranasally after 2 hrs by ELISA; assay type: functional, organism-based
Toll-like receptor 7 [9] = target: T2, Toll-like receptor 7; experiment: Agonist activity at TLR7 in human PBMC assessed as TNF-alpha production after 24 hrs by electrochemiluminescence assay; assay type: cell-based
[10] = Systemic clearance in rat; assay type: ADME; conditions: in vivo
[11] = target: T1, Toll-like receptor 7 (Macaca fascicularis); experiment: In vivo target occupancy at TLR7 in cynomolgus monkey assessed as fold increase in GBP1 mRNA expression in nasal scrape at 30 ng/kg administered intranasally incubated for 24 hrs by TaqMan analysis (reference value: 2.4); assay type: functional
Toll-like receptor 7 [12] = target: T3, Toll-like receptor 7 (Macaca fascicularis, UniProt B3Y652); experiment: Agonist activity at TLR7 in cynomolgus monkey whole blood assessed as induction of TNFalpha production; assay type: tissue-based
T3 sequence (B3Y652 whole entry): T1 sequence (whole entry)

Cynomolgus monkey = experiment: Increase in IP-10 level in cynomolgus monkey serum at 30 ng/kg, administered intranasally after 6 hrs; assay type: functional, organism-based; conditions: Macaca fascicularis
PBMC = experiment: Immunomodulatory activity in human PBMC assessed as IFNalpha production incubated for 6 days in presence of allergen timothy grass; assay type: functional, cell-based; conditions: time 6.0 day
Toll-like receptor 7 [13] = target: T2, Toll-like receptor 7; experiment: Agonist activity at TLR7 in human whole blood assessed as induction of IL-10 production after 20 hrs by electrochemiluminescence assay; assay type: tissue-based

Toll-like receptor 3 (Homo sapiens), sequence (O15455 whole entry): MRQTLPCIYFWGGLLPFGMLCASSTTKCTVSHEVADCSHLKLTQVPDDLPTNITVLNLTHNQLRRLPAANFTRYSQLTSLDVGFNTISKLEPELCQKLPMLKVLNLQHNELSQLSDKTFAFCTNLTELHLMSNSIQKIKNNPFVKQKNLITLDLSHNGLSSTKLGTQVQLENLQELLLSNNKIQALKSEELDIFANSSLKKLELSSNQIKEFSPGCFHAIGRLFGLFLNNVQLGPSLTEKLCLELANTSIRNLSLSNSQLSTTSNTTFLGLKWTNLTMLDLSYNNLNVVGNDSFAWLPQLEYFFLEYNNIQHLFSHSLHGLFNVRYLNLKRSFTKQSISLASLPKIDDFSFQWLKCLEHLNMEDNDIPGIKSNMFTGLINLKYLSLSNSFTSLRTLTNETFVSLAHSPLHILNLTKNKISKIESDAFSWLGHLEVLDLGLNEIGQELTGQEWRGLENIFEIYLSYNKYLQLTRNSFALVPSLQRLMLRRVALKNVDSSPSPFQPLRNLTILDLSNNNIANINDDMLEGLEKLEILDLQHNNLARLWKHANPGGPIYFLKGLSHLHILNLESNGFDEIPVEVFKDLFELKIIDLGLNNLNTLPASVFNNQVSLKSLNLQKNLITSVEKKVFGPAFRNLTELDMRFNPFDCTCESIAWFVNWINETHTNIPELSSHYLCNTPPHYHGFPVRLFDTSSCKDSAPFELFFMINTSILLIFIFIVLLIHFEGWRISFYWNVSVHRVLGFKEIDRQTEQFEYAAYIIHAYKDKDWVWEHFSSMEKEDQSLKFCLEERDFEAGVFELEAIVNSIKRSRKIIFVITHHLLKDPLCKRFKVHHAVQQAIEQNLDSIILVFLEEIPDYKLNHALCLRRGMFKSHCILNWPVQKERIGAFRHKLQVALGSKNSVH

fold change (FC) [1]: 124
EC50 (Toll-like receptor 7 [2]): 1260 nM
bioavailability [3]: 42%
Activity [4]: inactive
fold change (FC) [5]: 19300
fold change (FC) [6]: 68.5
EC50 (Toll-like receptor 7 [9]): 316 nM
clearance [10]: 96 mL/min/kg
fold change (FC) [11]: 97.6
EC50 (Toll-like receptor 7 [12]): 15800 nM
EC50 (Toll-like receptor 7 [13]): 251 nM
SMILES: CCC[C@H](C)Oc1nc(N)c2[nH]c(=O)n(CCCCCN3CCCCC3)c2n1 [GSK-2245035]
Activity (Mus musculus [7]): Active
Activity (Mus musculus [8]): Active
Activity (Cynomolgus monkey): Active
Activity (PBMC): Active
